Assay results reported in patent US6908899B2, “Pro-inflammatory fibrinopeptide” (U.S. Dept. of Veterans Affairs, priority 2001, dated 2005).

Columns and labels:
RA synovial cell lines = experiment: Flow cytometry analysis of ICAM-1 expression; type: cell-based, human
[1] = test system: human foreskin fibroblasts; experiment: Flow cytometry analysis of ICAM-1 expression; type: cell-based; conditions: GPRP 1 mg/ml
RA synovial fibroblasts [2] = experiment: ICAM-1 cell-ELISA (O.D. 492); type: cell-based, human; conditions: for ICAM-1 O.D. 492 / ICAM-1 expression O.D. 492: overnight; for ICAM-1 O.D. 492: IL-1 0.5 ng/ml, GPRP or GPRP-amide 1 mg/ml, fibrinogen receptor peptide 0.1 mg/ml, FPA, FPB 10^−4 M; for ICAM-1 expression O.D. 492: fibrin clots 0.6 mg/ml or GPRP 1 mg/ml, mean ± SD, triplicate
foreskin fibroblasts [3] = experiment: ICAM-1 cell-ELISA (O.D. 492); type: cell-based, human
[4] = test system: synovial cells from patients with osteoarthritis (OA); experiment: ICAM-1 ELISA (O.D. 492); type: cell-based, human; conditions: OA line; overnight; IL-1 0.5 ng/ml, GPRP or GPRP-amide 1 mg/ml, fibrinogen receptor peptide 0.1 mg/ml, FPA, FPB 10^−4 M
RA synovial fibroblasts [5] = experiment: IL-6 ELISA on cell supernatants; type: cell-based, human; conditions: overnight with GPRP
foreskin fibroblasts [6] = experiment: IL-6 ELISA on cell supernatants; type: cell-based, human; conditions: overnight with GPRP
[7] = test system: OA derived synovial cells; experiment: In vitro T cell adhesion assay; type: cell-based, human; conditions: OA line 15, ± SD, triplicate wells
[8] = test system: foreskin fibroblast cells; experiment: In vitro T cell adhesion assay; type: cell-based, human; conditions: Foreskin line, ± SD, triplicate wells
foreskin fibroblasts [9] = experiment: IL-8 ELISA on cell culture supernatants; type: cell-based, human; conditions: 1 mg/ml GPRP
RA synovial fibroblasts [10] = experiment: GRO-alpha ELISA on cell culture supernatants; type: cell-based, human
Protocol: I used commercial ELISA kits to assay cell culture supernatants of RA fibroblasts that were cultured for both 24 and 48 hours with or without peptide.

foreskin fibroblasts [11] = experiment: GRO-alpha ELISA on cell culture supernatants; type: cell-based, human; conditions: for Increase in GRO-alpha secretion: foreskin FB
OA synovial cells = experiment: PDTC inhibition of IL-1 and GPRP induction of ICAM-1 (ELISA); type: cell-based, human; conditions: PDTC pre-incubation 1.5 hours, IL-1 or GPRP overnight, ± SD, triplicate
Text: (§1) NF-kappaB activation is already well known to affect a broad array of immediate-early gene products, such as TNF, interleukins, chemokines and colony stimulating factors; genes that are tightly regulated during inflammation and wound healing. […] PDTC is an anti-oxidant that prevents NF-kappaB activation and its translocation to the nucleus (Reference 26). […] [table]

RA synovial cells = experiment: as above; type: cell-based, human; conditions: PDTC pre-incubation 1.5 hours, IL-1 or GPRP overnight, ± SD, triplicate
Text: as §1

Synovial cells [12] = experiment: SAC competition assay by flow cytometry; type: binding, human
Text: Thus, labeled peptide could facilitate the isolation, identification and characterization of its receptor, through standard immunological techniques such as immunohistochemistry, flow cytometry and immunoprecipitation.

fibrin polymerization = experiment: Inhibition of fibrin polymerization; type: biochemical; conditions: applicant's studies of fibrin co-culture (Reference 19)
Text: (§2) Synthetic peptides modeled after these “knobs” are able to inhibit fibrin polymerization by covering up the “holes” on the gamma chains and are commercially available.
For example, changing Gly1 to anything else destroys its inhibitory action as there appears to be no extra “room” for a side chain in the gamma chain “hole” into which it must fit. However, as noted below, amino acid Pro4 functions differently.

endothelial cells = experiment: Fibrin co-culture with endothelial cells; type: cell-based
Text: as §2

[13] = test system: synovial fibroblast lines; experiment: V-CAM-1 expression on synovial lines; type: cell-based, human; conditions: in response to the peptide
synovial cells [14] = experiment: RT-PCR of IL-6 gene expression; type: cell-based; conditions: versus controls
[15] = test system: human lung fibroblastic cells; experiment: Response of lung fibroblastic cells to the fibrinopeptide; type: cell-based
Text: The peptide of the invention is believed to play a role in inflammatory lung diseases in which fibrin deposition is also known to occur. My research has proven that human lung fibroblastic cells are also responsive to the fibrinopeptide, and under its influence, will express selective pro-inflammatory molecules on the cell surface and will secrete pro-inflammatory mediators, such as cytokines and chemical attractants for immune cells.

[16] = RA line 4, fibrin clot 0.6 mg/ml or GPRP 1 mg/ml
[17] = RA line 9, fibrin clot 0.6 mg/ml or GPRP 1 mg/ml

Sequence of fibrin polymerization (P02679 27-453): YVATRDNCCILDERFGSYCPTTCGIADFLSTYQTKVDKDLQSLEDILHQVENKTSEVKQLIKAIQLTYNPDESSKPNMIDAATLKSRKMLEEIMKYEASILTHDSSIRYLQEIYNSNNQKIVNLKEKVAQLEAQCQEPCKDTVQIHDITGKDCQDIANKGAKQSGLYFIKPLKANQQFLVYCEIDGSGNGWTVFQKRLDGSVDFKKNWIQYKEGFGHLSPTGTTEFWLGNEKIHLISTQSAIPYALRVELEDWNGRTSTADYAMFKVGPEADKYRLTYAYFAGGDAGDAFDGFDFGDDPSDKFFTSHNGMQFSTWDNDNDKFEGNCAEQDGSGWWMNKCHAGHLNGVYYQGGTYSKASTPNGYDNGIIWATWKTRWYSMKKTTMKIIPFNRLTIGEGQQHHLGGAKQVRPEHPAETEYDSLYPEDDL
Sequence of fibrin polymerization (P02671 20-639 isoform P02671-2 partner limits assumed): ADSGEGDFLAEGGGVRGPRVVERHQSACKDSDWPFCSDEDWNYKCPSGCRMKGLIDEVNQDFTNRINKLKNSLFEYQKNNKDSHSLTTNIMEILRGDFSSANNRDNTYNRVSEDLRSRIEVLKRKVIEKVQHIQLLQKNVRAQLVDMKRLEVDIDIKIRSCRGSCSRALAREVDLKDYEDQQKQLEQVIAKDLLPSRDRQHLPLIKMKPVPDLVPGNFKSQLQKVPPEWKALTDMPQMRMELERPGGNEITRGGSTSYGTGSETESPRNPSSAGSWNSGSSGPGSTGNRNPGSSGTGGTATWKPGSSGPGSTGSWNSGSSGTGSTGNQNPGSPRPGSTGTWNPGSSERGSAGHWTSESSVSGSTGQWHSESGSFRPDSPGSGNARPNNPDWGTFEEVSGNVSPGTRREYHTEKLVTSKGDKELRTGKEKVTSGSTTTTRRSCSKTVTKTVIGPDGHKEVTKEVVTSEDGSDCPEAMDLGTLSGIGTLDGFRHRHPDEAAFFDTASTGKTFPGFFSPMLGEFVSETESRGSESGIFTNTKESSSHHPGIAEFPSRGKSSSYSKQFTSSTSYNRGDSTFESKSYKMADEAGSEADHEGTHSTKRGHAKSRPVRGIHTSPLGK
Sequence of fibrin polymerization (P02675 45-491 partner limits assumed): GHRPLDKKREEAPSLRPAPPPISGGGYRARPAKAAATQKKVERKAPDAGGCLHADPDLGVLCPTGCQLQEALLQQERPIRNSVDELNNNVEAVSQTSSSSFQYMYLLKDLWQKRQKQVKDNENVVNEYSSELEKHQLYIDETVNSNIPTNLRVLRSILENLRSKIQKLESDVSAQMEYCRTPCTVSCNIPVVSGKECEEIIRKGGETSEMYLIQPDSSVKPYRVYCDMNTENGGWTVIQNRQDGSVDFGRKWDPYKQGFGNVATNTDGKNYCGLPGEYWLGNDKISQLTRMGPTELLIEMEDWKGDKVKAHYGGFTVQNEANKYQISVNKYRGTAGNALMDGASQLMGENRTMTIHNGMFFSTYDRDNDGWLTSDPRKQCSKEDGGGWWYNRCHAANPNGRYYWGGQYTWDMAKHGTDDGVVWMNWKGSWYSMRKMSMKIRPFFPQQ

Gly-Pro-Arg-Pro [GPRP]
ICAM-1 % positive (RA synovial cell lines; [16]): 87.0% | ICAM-1 MFC (RA synovial cell lines; [16]): 2.73 | ICAM-1 % positive (RA synovial cell lines; RA line 5, GPRP 1 mg/ml): 74.5% | ICAM-1 MFC (RA synovial cell lines; RA line 5, GPRP 1 mg/ml): 2.00 | ICAM-1 % positive (RA synovial cell lines; RA line 6, GPRP 1 mg/ml): 95.0% | ICAM-1 MFC (RA synovial cell lines; RA line 6, GPRP 1 mg/ml): 9.19 | ICAM-1 % positive (RA synovial cell lines; [17]): 80.1% | ICAM-1 MFC (RA synovial cell lines; [17]): 3.62 | ICAM-1 % positive [1]: 86.7% | ICAM-1 MFC [1]: 2.26 | ICAM-1 induction (RA synovial fibroblasts [2]; GPRP at 0.01 mg/ml): not to be significant | ICAM-1 induction (RA synovial fibroblasts [2]; GPRP at 1.0, 0.5, and 0.1 mg/ml): significant induction | ICAM-1 O.D. 492 (RA synovial fibroblasts [2]; RA line 1): 1.38 ± .16 | ICAM-1 O.D. 492 (RA synovial fibroblasts [2]; RA line 2): 0.98 ± .03 | ICAM-1 expression O.D. 492 (RA synovial fibroblasts [2]; RA line 4): 1.04 ± .02 | ICAM-1 expression O.D. 492 (RA synovial fibroblasts [2]; RA line 5): 1.10 ± .03 | ICAM-1 expression O.D. 492 (RA synovial fibroblasts [2]; RA line 9): 0.98 ± .15 | ICAM-1 OD 492 (RA synovial fibroblasts [2]; RA#11, GPRP 0.10 mg/ml overnight): .37 ± 0 | ICAM-1 OD 492 (RA synovial fibroblasts [2]; RA#11, GPRP 0.30 mg/ml overnight): .46 ± .05 | ICAM-1 OD 492 (RA synovial fibroblasts [2]; RA#11, GPRP 1.00 mg/ml overnight): .59 ± .05 | ICAM-1 OD 492 (RA synovial fibroblasts [2]; RA#11, GPRP .001 mg/ml overnight): .24 ± .05 | ICAM-1 OD 492 (RA synovial fibroblasts [2]; RA#11, GPRP .003 mg/ml overnight): .25 ± .03 | ICAM-1 OD 492 (RA synovial fibroblasts [2]; RA#11, GPRP .010 mg/ml overnight): .24 ± .05 | ICAM-1 OD 492 (RA synovial fibroblasts [2]; RA#11, GPRP .030 mg/ml overnight): .31 ± .02 | ICAM-1 OD 492 (RA synovial fibroblasts [2]; RA#12, GPRP 0.10 mg/ml overnight): 0.76 ± .03 | ICAM-1 OD 492 (RA synovial fibroblasts [2]; RA#12, GPRP 0.30 mg/ml overnight): 1.09 ± .06 | ICAM-1 OD 492 (RA synovial fibroblasts [2]; RA#12, GPRP 1.00 mg/ml overnight): 1.42 ± .08 | ICAM-1 OD 492 (RA synovial fibroblasts [2]; RA#12, GPRP .001 mg/ml overnight): 0.51 ± .01 | ICAM-1 OD 492 (RA synovial fibroblasts [2]; RA#12, GPRP .003 mg/ml overnight): 0.53 ± .01 | ICAM-1 OD 492 (RA synovial fibroblasts [2]; RA#12, GPRP .010 mg/ml overnight): 0.57 ± .02 | ICAM-1 OD 492 (RA synovial fibroblasts [2]; RA#12, GPRP .030 mg/ml overnight): 0.62 ± .03 | ICAM-1 expression (RA synovial fibroblasts [2]; more than seven different RA fibroblast lines): consistently increased expression of ICAM-1 | ICAM-1 OD 492 (foreskin fibroblasts [3]; FF-#1, GPRP 0.10 mg/ml overnight): 0.92 ± .02 | ICAM-1 OD 492 (foreskin fibroblasts [3]; FF-#1, GPRP 0.30 mg/ml overnight): 0.99 ± .01 | ICAM-1 OD 492 (foreskin fibroblasts [3]; FF-#1, GPRP 1.00 mg/ml overnight): 1.02 ± .01 | ICAM-1 OD 492 (foreskin fibroblasts [3]; FF-#1, GPRP .001 mg/ml overnight): 0.92 ± .01 | ICAM-1 OD 492 (foreskin fibroblasts [3]; FF-#1, GPRP .003 mg/ml overnight): 0.95 ± .06 | ICAM-1 OD 492 (foreskin fibroblasts [3]; FF-#1, GPRP .010 mg/ml overnight): 0.93 ± .03 | ICAM-1 OD 492 (foreskin fibroblasts [3]; FF-#1, GPRP .030 mg/ml overnight): 0.94 ± .05 | ICAM-1 OD 492 (foreskin fibroblasts [3]; FF-#2, GPRP 0.10 mg/ml overnight): .72 ± .02 | ICAM-1 OD 492 (foreskin fibroblasts [3]; FF-#2, GPRP 0.30 mg/ml overnight): .72 ± .03 | ICAM-1 OD 492 (foreskin fibroblasts [3]; FF-#2, GPRP 1.00 mg/ml overnight): .78 ± .04 | ICAM-1 OD 492 (foreskin fibroblasts [3]; FF-#2, GPRP .001 mg/ml overnight): .69 ± .02 | ICAM-1 OD 492 (foreskin fibroblasts [3]; FF-#2, GPRP .003 mg/ml overnight): .71 ± .04 | ICAM-1 OD 492 (foreskin fibroblasts [3]; FF-#2, GPRP .010 mg/ml overnight): .71 ± .02 | ICAM-1 OD 492 (foreskin fibroblasts [3]; FF-#2, GPRP .030 mg/ml overnight): .70 ± .02 | ICAM-1 expression O.D. 492 (foreskin fibroblasts [3]; Foreskin fibroblasts, overnight, fibrin clots 0.6 mg/ml, GPRP 1 mg/ml or interferon γ 200 U/ml, mean ± SD): 0.55 ± .05 | ICAM-1 O.D. 492 (foreskin fibroblasts [3]; Foreskin line, overnight, IL-1 0.5 ng/ml, GPRP or GPRP-amide 1 mg/ml, fibrinogen receptor peptide 0.1 mg/ml, FPA, FPB 10^−4 M): 0.79 ± .02 | ICAM-1 O.D. 492 [4]: 0.85 ± .08 | IL-6 (RA synovial fibroblasts [5]; RA #1): 2400 pg/mL | IL-6 INCREASE over control (RA synovial fibroblasts [5]; RA #1): 1.50X | IL-6 (RA synovial fibroblasts [5]; RA #11): 1700 pg/mL | IL-6 INCREASE over control (RA synovial fibroblasts [5]; RA #11): 6.18X | IL-6 (RA synovial fibroblasts [5]; RA #16): 11100 pg/mL | IL-6 INCREASE over control (RA synovial fibroblasts [5]; RA #16): 3.70X | IL-6 (RA synovial fibroblasts [5]; RA #18): 940 pg/mL | IL-6 INCREASE over control (RA synovial fibroblasts [5]; RA #18): 1.90X | IL-6 (foreskin fibroblasts [6]): 215 pg/mL | Adherent T cell numbers ([7]; GPRP 0.1 mg/ml overnight): 92 ± 27 | Adherent T cell numbers ([7]; GPRP 1 mg/ml overnight): 113 ± 44 | Adherent T cell numbers ([8]; GPRP 0.1 mg/ml overnight): 51 ± 3 | Adherent T cell numbers ([8]; GPRP 1 mg/ml overnight): 54 ± 11 | IL-8 (foreskin fibroblasts [9]; 24 hr): 1,840 pg/ml | IL-8 (foreskin fibroblasts [9]; 48 hr): 1,200 pg/ml | GRO-alpha Fold Increase (RA synovial fibroblasts [10]; RA fibroblasts, visual observation of developed ELISA plates): at least as much as was seen for IL-8 | GRO-alpha (RA synovial fibroblasts [10]; RA line 8, 1 mg/ml GPRP): 8500 pg/mL | GRO-alpha Fold Increase (RA synovial fibroblasts [10]; RA line 8, 1 mg/ml GPRP, versus control): 21X | GRO-alpha (foreskin fibroblasts [11]; Foreskin fibroblasts, 1 mg/ml GPRP): 470 pg/mL | GRO-alpha Fold Increase (foreskin fibroblasts [11]; Foreskin fibroblasts, 1 mg/ml GPRP, versus control): 1.2X | Increase in GRO-alpha secretion (foreskin fibroblasts [11]; forty-eight hours): 1.2 fold | Increase in GRO-alpha secretion (foreskin fibroblasts [11]; twenty-four hours): 1.2 fold | ICAM-1 O.D. 492 (OA synovial cells; OA line 2): 1.66 ± .05 | ICAM-1 O.D. 492 (OA synovial cells; OA line 8): 1.30 ± .09 | ICAM-1 O.D. 492 (RA synovial cells; RA line 5): 1.83 ± .08 | ICAM-1 O.D. 492 (RA synovial cells; RA line 6): 1.67 ± .06 | Competition with biotin-labeled SAC for binding to human synovial fibroblasts (Synovial cells [12]; unlabeled competitor): can compete | Mean (fluorescence of bound SAC[KBtn]) (Synovial cells [12]; unlabeled competitor 2.5 mg for 3 hours, then labeled SAC[KBtn] for 1 hour, Avidin-FITC): 33.58 | Inhibition of fibrin polymerization (fibrin polymerization): good inhibitor of fibrin polymerization | Direct effects on endothelial cells (endothelial cells): no direct effects | Lines tested that upregulated V-CAM-1 expression [13]: about 50 % of the lines tested | IL-6 gene expression (synovial cells [14]): significantly more IL-6 gene expression than controls | Responsiveness of lung fibroblastic cells (surface pro-inflammatory molecules, secreted mediators) [15]: responsive
